Our source for the GI50 and TGI values is PubChem BioAssay (NCI).

Test systems include SF-539 CNS; SK-MEL-28 melanoma; SNB-75 CNS; RPMI-8226 leukemia; SK-MEL-2 melanoma; CCRF-CEM leukemia; OVCAR-3 ovarian; HCT-116 colon; SK-MEL-5 melanoma; DU-145 prostate.
What all share (experiment): inhibition of tumour cell growth, NCI panel, 48 h

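The compound was tested at five concentrations on cells cultured in 96-well plates, with a 48-hour exposure period. Here, GI50 denotes the concentration required for 50% inhibition of growth. The concentration for full growth arrest is given as TGI.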

For `O=C(CSc1nc2ccc([N+](=O)[O-])cc2[nH]1)Nc1ccc([N+](=O)[O-])cc1`, the GI50 in the test on SF-539 CNS is 2.96 µM; with SK-MEL-28 melanoma, 2.82 µM; in the test with SNB-75 CNS it was 1.84 µM; in the test on RPMI-8226 leukemia it was 1.27 µM; with SK-MEL-2 melanoma it was 1.97 µM; in the test on CCRF-CEM leukemia it was 2.48 µM. Also, the GI50 was 2.05 µM in the test with OVCAR-3 ovarian, 2.7 µM in the test with HCT-116 colon, 1.2 µM with SK-MEL-5 melanoma and 3.51 µM in the test on DU-145 prostate. For the same compound, the TGI in the test with SF-539 CNS was 11.9 µM; in the test with SK-MEL-28 melanoma, 14.2 µM; with SNB-75 CNS, 6.95 µM; in the test on RPMI-8226 leukemia, greater than 23.2 µM; with SK-MEL-2 melanoma it was 5.81 µM; in the test with CCRF-CEM leukemia, greater than 100 µM. In addition, the TGI in the test with OVCAR-3 ovarian was 10.9 µM; with HCT-116 colon, greater than 32.6 µM; in the test on SK-MEL-5 melanoma, 2.54 µM; in the test on DU-145 prostate it was 15.6 µM.
On to `O=C(NCCCNc1cc(-c2cn(-c3ccccc3)nc2-c2cccc(O)c2)ccn1)c1ccc(F)cc1`, for which the GI50 in the test on SF-539 CNS is 2.15 µM; with SK-MEL-28 melanoma, 1.74 µM; in the test with SNB-75 CNS, 5.19 µM; in the test with RPMI-8226 leukemia, 1.94 µM; in the test on SK-MEL-2 melanoma, 2.18 µM; with CCRF-CEM leukemia, 1.54 µM. Moreover, the GI50 was 4.03 µM in the test with OVCAR-3 ovarian, 2.14 µM in the test on HCT-116 colon, 1.61 µM in the test on SK-MEL-5 melanoma and 4.63 µM with DU-145 prostate. For the same compound, the TGI in the test with SF-539 CNS is 5.41 µM; in the test with SK-MEL-28 melanoma it was 4.12 µM; in the test with SNB-75 CNS, greater than 100 µM; in the test with RPMI-8226 leukemia, 5.55 µM; in the test on SK-MEL-2 melanoma, 5.06 µM; in the test with CCRF-CEM leukemia it was greater than 100 µM. Besides, the TGI in the test with OVCAR-3 ovarian amounted to 40.7 µM; with HCT-116 colon, 7.38 µM; with SK-MEL-5 melanoma, 3.55 µM; in the test on DU-145 prostate, 53.4 µM.
On to `ClCCN(CCCl)c1ccc(OCc2ccccc2)cc1`, for which the GI50 in the test with SF-539 CNS was 2.03 µM; with SK-MEL-28 melanoma it was 13.8 µM; with SNB-75 CNS, 1.81 µM; in the test on RPMI-8226 leukemia it was 3.79 µM; in the test on SK-MEL-2 melanoma it was 13.3 µM; in the test on CCRF-CEM leukemia, 2.36 µM. The GI50 is 8.54 µM with OVCAR-3 ovarian, 6.81 µM in the test on HCT-116 colon, 6.62 µM with SK-MEL-5 melanoma and 3.16 µM with DU-145 prostate. Also, the TGI in the test with SF-539 CNS was 7.44 µM; in the test with SK-MEL-28 melanoma it was 40.9 µM; in the test on SNB-75 CNS, 12 µM; in the test on RPMI-8226 leukemia it was 36.5 µM; with SK-MEL-2 melanoma it was 35.4 µM; in the test with CCRF-CEM leukemia, 27.6 µM. In addition, the TGI in the test with OVCAR-3 ovarian was 34.8 µM; with HCT-116 colon, 26.9 µM; in the test with SK-MEL-5 melanoma, 20.6 µM; in the test with DU-145 prostate it was 27.6 µM.
Turning to `O=C(NC(=S)Nc1ccc(-c2nc3ccccc3[nH]2)cc1)c1ccc2ccccc2c1`, the GI50 is 2.07 µM in the test on SF-539 CNS; 3.86 µM with SK-MEL-28 melanoma; 1.46 µM with SNB-75 CNS; 2.62 µM in the test on RPMI-8226 leukemia; 18.3 µM in the test on SK-MEL-2 melanoma; 6 µM with CCRF-CEM leukemia. For the same compound, the GI50 in the test on OVCAR-3 ovarian is 3.22 µM; in the test on HCT-116 colon, 2.56 µM; in the test on SK-MEL-5 melanoma, 3.63 µM; in the test on DU-145 prostate, 3.9 µM. Also, the TGI with SF-539 CNS was 4.53 µM; in the test with SK-MEL-28 melanoma, 23.4 µM; with SNB-75 CNS it was 3.38 µM; with RPMI-8226 leukemia, 9.29 µM; in the test with SK-MEL-2 melanoma, 48.8 µM; in the test on CCRF-CEM leukemia, greater than 100 µM. Moreover, the TGI was 10.1 µM with OVCAR-3 ovarian, 7.33 µM in the test with HCT-116 colon, greater than 100 µM in the test with SK-MEL-5 melanoma and greater than 100 µM in the test with DU-145 prostate.
With `CC(C)[C@]12O[C@H]1[C@@H]1O[C@]13[C@]1(O[C@H]1C[C@H]1C4=C(CC[C@@]13C)C(=O)OC4)[C@@H]2OC(=O)OC(C)(C)C`, the GI50 in the test with SF-539 CNS was 0.0217 µM; with SK-MEL-28 melanoma it was 0.0176 µM; with SNB-75 CNS, 0.0193 µM; in the test on RPMI-8226 leukemia, 0.0195 µM; in the test with SK-MEL-2 melanoma, 0.0185 µM; in the test with CCRF-CEM leukemia, 0.0377 µM. The GI50 in the test with OVCAR-3 ovarian was 0.0171 µM; in the test on HCT-116 colon, less than 0.0107 µM; with SK-MEL-5 melanoma it was 0.0114 µM; with DU-145 prostate it was 0.0204 µM. Further, the TGI with SF-539 CNS is 0.294 µM; in the test with SNB-75 CNS, 0.062 µM; in the test on RPMI-8226 leukemia it was greater than 42.5 µM; in the test on SK-MEL-2 melanoma it was 0.0603 µM; in the test on CCRF-CEM leukemia, greater than 100 µM; in the test on OVCAR-3 ovarian it was 0.883 µM. The values for the TGI with HCT-116 colon, with SK-MEL-5 melanoma and in the test with DU-145 prostate were greater than 100 µM, 0.0247 µM and greater than 100 µM, respectively.
As to `CC[C@@]1(O)C(=O)OCc2c1cc1n(c2=O)Cc2cc3c(OC)cccc3nc2-1`, the GI50 in the test with SF-539 CNS was 0.00654 µM; with SK-MEL-28 melanoma, 1.72 µM; with SNB-75 CNS, 0.00687 µM; with CCRF-CEM leukemia it was 0.00022 µM; with OVCAR-3 ovarian it was 0.0434 µM; with SK-MEL-5 melanoma it was 0.0229 µM. Also, the GI50 in the test with DU-145 prostate is 0.00266 µM. Moreover, the TGI in the test with SF-539 CNS was 0.224 µM; in the test on SK-MEL-28 melanoma, greater than 28.1 µM; in the test with SNB-75 CNS it was 2.06 µM; in the test on RPMI-8226 leukemia, 1.81 µM; in the test with SK-MEL-2 melanoma it was 2.6 µM; in the test with OVCAR-3 ovarian it was 1.21 µM. Besides, the TGI in the test with HCT-116 colon is greater than 100 µM; in the test on SK-MEL-5 melanoma, 0.311 µM.
